The values below come from US20220160716A1 (SORBONNE UNIVERSITE, priority 2019, published 2022).

Molecules are shown by their SMILES.

T2 sequence (Q00535 whole entry, species assumed): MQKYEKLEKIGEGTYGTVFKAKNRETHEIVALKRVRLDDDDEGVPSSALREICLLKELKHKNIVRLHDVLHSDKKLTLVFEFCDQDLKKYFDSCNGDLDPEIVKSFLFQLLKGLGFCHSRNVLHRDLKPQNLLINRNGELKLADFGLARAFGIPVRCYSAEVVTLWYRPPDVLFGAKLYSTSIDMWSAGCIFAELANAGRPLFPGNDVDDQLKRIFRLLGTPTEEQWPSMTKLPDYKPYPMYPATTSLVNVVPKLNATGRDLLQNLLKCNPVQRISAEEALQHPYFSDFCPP
T2 sequence (Q15078 99-307 partner limits assumed, species assumed): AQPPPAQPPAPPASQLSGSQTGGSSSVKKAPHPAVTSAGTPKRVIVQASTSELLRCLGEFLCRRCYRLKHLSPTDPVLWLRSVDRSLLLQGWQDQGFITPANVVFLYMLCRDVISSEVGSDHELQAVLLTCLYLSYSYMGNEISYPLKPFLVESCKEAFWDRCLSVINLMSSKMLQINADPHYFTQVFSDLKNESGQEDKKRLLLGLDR

In one data set the target is T1, DYRK1A (Homo sapiens, UniProt Q13627).
T1 construct: made in house
Briefly: Protein kinase catalytic activity assay, DYRK1A. The conditions noted are these: read-out: IC50 of protein kinases, DYRK1A. It is filed as biochemical.
For the compound `CC[C@@H](Nc1nc(NCc2ccccc2)c2ncn(C3CCCC3)c2n1)C(=O)O` [MRT2-245], the IC50 was determined as 21 µM.
With `CC[C@@H](Nc1nc(NCc2cccc(C(F)(F)F)c2)c2ncn(C3CCCC3)c2n1)C(=O)O` [MRT2-239], the IC50 worked out at 21 µM.
The same measure, in the same setting: in the case of `CC[C@@H](Nc1nc(NCc2cccc(C(F)(F)F)c2)c2ncn(C(C)C)c2n1)C(=O)O` [MRT2-249] it was 9 µM; in that of `CC[C@@H](Nc1nc(NCc2ccc(F)c(F)c2)c2ncn(C3CCCC3)c2n1)C(=O)O` [MRT2-241], 20 µM; in that of `CC[C@@H](Nc1nc(NCc2ccccc2)c2ncn(C(C)C)c2n1)C(=O)O` [M3, reference compound], 19 µM.
Regarding `CC(C)n1cnc2c(NCc3ccccc3)nc(N[C@@H](CO)C(=O)O)nc21` [MRT2-164], the IC50 is above 10 µM.

A further data set addresses T2, CDK5/p25 (Homo sapiens, UniProt Q00535).
T2 construct: made in house
Experiment: not given
Type of data set: biochemical. Conditions: activator p25; read-out: IC50 of protein kinases, CDK5/p25.
With `CC[C@@H](Nc1nc(NCc2ccccc2)c2ncn(C3CCCC3)c2n1)C(=O)O` [MRT2-245], the IC50 worked out at 15 µM.
On to `CC[C@@H](Nc1nc(NCc2cccc(C(F)(F)F)c2)c2ncn(C3CCCC3)c2n1)C(=O)O` [MRT2-239], for which the IC50 is 11 µM.
For the compound `CC[C@@H](Nc1nc(NCc2cccc(C(F)(F)F)c2)c2ncn(C(C)C)c2n1)C(=O)O` [MRT2-249], the IC50 was 27 µM.
Regarding `CC[C@@H](Nc1nc(NCc2ccc(F)c(F)c2)c2ncn(C3CCCC3)c2n1)C(=O)O` [MRT2-241], the IC50 was 17 µM.

In another data set the target is T3, CDK9/T (Homo sapiens, UniProt P50750).
T3 construct: made in house
T3 sequence (P50750 whole entry, species assumed): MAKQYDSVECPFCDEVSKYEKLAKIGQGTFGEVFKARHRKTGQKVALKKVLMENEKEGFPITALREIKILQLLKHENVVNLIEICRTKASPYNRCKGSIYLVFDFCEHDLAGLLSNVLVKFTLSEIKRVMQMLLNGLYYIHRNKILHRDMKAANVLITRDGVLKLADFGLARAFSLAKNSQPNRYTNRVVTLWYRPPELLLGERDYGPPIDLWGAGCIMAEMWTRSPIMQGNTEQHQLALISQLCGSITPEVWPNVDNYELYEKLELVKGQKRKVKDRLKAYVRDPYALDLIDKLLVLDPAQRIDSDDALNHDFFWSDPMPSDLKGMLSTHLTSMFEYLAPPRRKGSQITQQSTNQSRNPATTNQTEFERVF
T3 sequence (O60563 whole entry partner, species assumed): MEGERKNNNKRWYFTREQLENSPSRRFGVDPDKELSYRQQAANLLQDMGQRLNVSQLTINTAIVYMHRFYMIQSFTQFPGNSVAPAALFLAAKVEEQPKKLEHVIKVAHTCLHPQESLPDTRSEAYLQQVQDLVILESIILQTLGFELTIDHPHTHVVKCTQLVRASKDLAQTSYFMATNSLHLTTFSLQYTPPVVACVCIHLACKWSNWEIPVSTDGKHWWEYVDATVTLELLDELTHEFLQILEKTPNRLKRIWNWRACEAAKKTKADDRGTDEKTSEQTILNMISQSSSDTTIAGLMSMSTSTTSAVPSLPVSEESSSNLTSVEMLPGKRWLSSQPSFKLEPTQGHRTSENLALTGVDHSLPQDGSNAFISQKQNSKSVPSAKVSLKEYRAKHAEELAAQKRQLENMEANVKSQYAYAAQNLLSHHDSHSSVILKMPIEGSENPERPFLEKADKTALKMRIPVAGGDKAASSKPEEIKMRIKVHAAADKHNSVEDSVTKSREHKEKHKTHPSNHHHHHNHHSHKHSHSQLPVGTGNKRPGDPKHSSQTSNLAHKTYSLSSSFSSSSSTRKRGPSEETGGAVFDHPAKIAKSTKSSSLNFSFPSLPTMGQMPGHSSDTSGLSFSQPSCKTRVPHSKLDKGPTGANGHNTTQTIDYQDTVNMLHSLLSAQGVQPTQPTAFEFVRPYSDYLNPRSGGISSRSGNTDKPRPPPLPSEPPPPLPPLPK
Briefly: Protein kinase catalytic activity assay, CDK9/cyclin T. Conditions: activator cyclin T; read-out: IC50 of protein kinases, CDK9/T. It is filed as biochemical.
Turning to `CC[C@@H](Nc1nc(NCc2ccccc2)c2ncn(C3CCCC3)c2n1)C(=O)O` [MRT2-245], the IC50 is 28 µM.
For `CC[C@@H](Nc1nc(NCc2cccc(C(F)(F)F)c2)c2ncn(C3CCCC3)c2n1)C(=O)O` [MRT2-239], the IC50 amounted to 20 µM.
Turning to `CC[C@@H](Nc1nc(NCc2cccc(C(F)(F)F)c2)c2ncn(C(C)C)c2n1)C(=O)O` [MRT2-249], the IC50 was above 33 µM.
For `CC[C@@H](Nc1nc(NCc2ccc(F)c(F)c2)c2ncn(C3CCCC3)c2n1)C(=O)O` [MRT2-241], the IC50 turned out to be 8 µM.
As for `CC[C@@H](Nc1nc(NCc2ccccc2)c2ncn(C(C)C)c2n1)C(=O)O` [M3, reference compound], the IC50 is above 33 µM.
Consider `CC(C)n1cnc2c(NCc3ccccc3)nc(N[C@@H](CO)C(=O)O)nc21` [MRT2-164], for which the IC50 is 17 µM.

In another data set the target is T4, CLK1 (Homo sapiens, UniProt P49759).
T4 construct: made in house
T4 sequence (P49759 whole entry): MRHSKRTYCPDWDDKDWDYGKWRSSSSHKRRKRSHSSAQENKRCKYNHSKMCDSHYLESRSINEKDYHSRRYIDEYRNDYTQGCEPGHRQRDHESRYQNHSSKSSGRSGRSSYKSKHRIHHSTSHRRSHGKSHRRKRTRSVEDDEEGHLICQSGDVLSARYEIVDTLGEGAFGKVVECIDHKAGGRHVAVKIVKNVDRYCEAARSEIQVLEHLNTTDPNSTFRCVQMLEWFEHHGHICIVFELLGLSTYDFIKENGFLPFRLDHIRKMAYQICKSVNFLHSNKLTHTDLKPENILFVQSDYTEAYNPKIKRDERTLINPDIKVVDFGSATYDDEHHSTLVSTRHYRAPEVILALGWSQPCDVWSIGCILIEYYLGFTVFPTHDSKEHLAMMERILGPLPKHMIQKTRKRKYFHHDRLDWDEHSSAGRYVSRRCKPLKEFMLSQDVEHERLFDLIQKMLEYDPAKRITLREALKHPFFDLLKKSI
Kind of data set: Protein kinase catalytic activity assay, CLK1. Conditions: read-out: IC50 of protein kinases, CLK1. It is filed as biochemical.
Take `CC[C@@H](Nc1nc(NCc2ccccc2)c2ncn(C3CCCC3)c2n1)C(=O)O` [MRT2-245]: the IC50 was 13 µM.
Consider `CC[C@@H](Nc1nc(NCc2cccc(C(F)(F)F)c2)c2ncn(C3CCCC3)c2n1)C(=O)O` [MRT2-239], for which the IC50 amounted to 9 µM.
Still for that read-out and setting: then `CC[C@@H](Nc1nc(NCc2cccc(C(F)(F)F)c2)c2ncn(C(C)C)c2n1)C(=O)O` [MRT2-249], with 23 µM.
With `CC[C@@H](Nc1nc(NCc2ccc(F)c(F)c2)c2ncn(C3CCCC3)c2n1)C(=O)O` [MRT2-241], the IC50 turned out to be 13 µM.
Turning to `CC[C@@H](Nc1nc(NCc2ccccc2)c2ncn(C(C)C)c2n1)C(=O)O` [M3, reference compound], the IC50 is above 33 µM.
For the compound `CC(C)n1cnc2c(NCc3ccccc3)nc(N[C@@H](CO)C(=O)O)nc21` [MRT2-164], the IC50 is above 33 µM.

A further data set has as its system HEK cells. Briefly: Cell viability MTT assay in HEK cells. The conditions noted are these: 25 μM, three days, % of vehicle-treated cells. The method, then: (§1) Cyclosporin A (CsA) was from Santa Cruz Biotechnologies (Dallas, Tex.). […] Each compound was solubilized in dimethylsulfoxide (DMSO) as 1000× concentrated stock solutions in order to treat cells with 5 μM to 100 μM final concentrations, using DMSO as control vehicle at the same dilution (0.1% DMSO for all conditions). The cells were treated 24 hours post-transfection with these drugs during 16 hours, except for the viability assays for which cells were treated during three days. After drug treatment, cells were used for immunoanalyses, cell viability assays or PC secretion assays.
Cell viability was assessed by the conversion of MTT (3-[4,5-dimethylthiazol-2-yl]-2,5 diphenyl tetrazolium bromide) into formazan crystals by living cells, as described (14). […] These conditions were optimized in order to maintain the absorbance at 540 nm of the blanks below 0.1 OD unit (negative controls) and the absorbance at 540 nm for untreated cells between 1.0 and 1.3 OD units (positive controls). Then culture media were gently washed out, cells were lysed in 100 μL of pure DMSO and absorbance at 540 nm was measured using a multiplate cytofluorimeter SpectraFluor from Tecan (Männedorf, Switzerland). Cell viability was calculated for each triplicate after background subtraction and expressed as percentage of the mean for cells treated with vehicle only.
In the case of `CC[C@H](CO)Nc1nc(NCc2ccccc2)c2ncn(C(C)C)c2n1` [Roscovitine, (R)-roscovitine], the cell viability result is “less than 60%”.

The same data set, now with this note: increasing concentrations, three days.
Consider `CC[C@H](CO)Nc1nc(NCc2ccccc2)c2ncn(C(C)C)c2n1` [Roscovitine, (R)-roscovitine], for which the cytotoxicity result is given as “important dose-dependent cytotoxicity”.

In another data set the target is T5, CDK2/A (Homo sapiens, UniProt P24941).
T5 construct: made in house
Kind of data set: Protein kinase catalytic activity assay, CDK2/cyclin A. Conditions: activator cyclin A; read-out: IC50 of protein kinases, CDK2/A. Type of data set: biochemical.
On to `CC[C@@H](Nc1nc(NCc2ccccc2)c2ncn(C3CCCC3)c2n1)C(=O)O` [MRT2-245], for which the IC50 turned out to be 6.3 µM.
`CC[C@@H](Nc1nc(NCc2cccc(C(F)(F)F)c2)c2ncn(C3CCCC3)c2n1)C(=O)O` [MRT2-239]: the IC50 was 8 µM.
Regarding `CC[C@@H](Nc1nc(NCc2cccc(C(F)(F)F)c2)c2ncn(C(C)C)c2n1)C(=O)O` [MRT2-249], the IC50 turned out to be 9 µM.
Regarding `CC[C@@H](Nc1nc(NCc2ccc(F)c(F)c2)c2ncn(C3CCCC3)c2n1)C(=O)O` [MRT2-241], the IC50 is 5.1 µM.

The target in the next data set is CK1. Briefly: Protein kinase catalytic activity assay, CK1. Type of data set: biochemical. The conditions noted are these: read-out: IC50 of protein kinases, CK1.
With `CC[C@@H](Nc1nc(NCc2ccccc2)c2ncn(C3CCCC3)c2n1)C(=O)O` [MRT2-245], the IC50 stood at 17 µM.
Consider `CC[C@@H](Nc1nc(NCc2cccc(C(F)(F)F)c2)c2ncn(C3CCCC3)c2n1)C(=O)O` [MRT2-239], for which the IC50 is 4 µM.
As to `CC[C@@H](Nc1nc(NCc2cccc(C(F)(F)F)c2)c2ncn(C(C)C)c2n1)C(=O)O` [MRT2-249], the IC50 stood at 5 µM.
Regarding `CC[C@@H](Nc1nc(NCc2ccc(F)c(F)c2)c2ncn(C3CCCC3)c2n1)C(=O)O` [MRT2-241], the IC50 stood at 11 µM.
With `CC[C@@H](Nc1nc(NCc2ccccc2)c2ncn(C(C)C)c2n1)C(=O)O` [M3, reference compound], the IC50 is above 33 µM.
As for `CC(C)n1cnc2c(NCc3ccccc3)nc(N[C@@H](CO)C(=O)O)nc21` [MRT2-164], the IC50 came out at 28 µM.

In another data set the target is ABCB4-I541F (Homo sapiens, UniProt P21439, I541F). Kind of data set: Maturation of ABCB4-I541F by immunoblot in HEK cells. Type of data set: cell-based. The conditions noted are these: HEK cells, 100 μM, 16 hours, immunoblot. The arrangement: The subcloning of wild type (WT) ABCB4, isoform A (NM_000443.3), into pcDNA3 vector has been described; expressed in transfected cells; host or cells: HEK-293 (immunoblot, PC secretion). The method, then: as §1
Chain of ABCB4-I541F (P21439 1-1279 isoform P21439-2 I541F): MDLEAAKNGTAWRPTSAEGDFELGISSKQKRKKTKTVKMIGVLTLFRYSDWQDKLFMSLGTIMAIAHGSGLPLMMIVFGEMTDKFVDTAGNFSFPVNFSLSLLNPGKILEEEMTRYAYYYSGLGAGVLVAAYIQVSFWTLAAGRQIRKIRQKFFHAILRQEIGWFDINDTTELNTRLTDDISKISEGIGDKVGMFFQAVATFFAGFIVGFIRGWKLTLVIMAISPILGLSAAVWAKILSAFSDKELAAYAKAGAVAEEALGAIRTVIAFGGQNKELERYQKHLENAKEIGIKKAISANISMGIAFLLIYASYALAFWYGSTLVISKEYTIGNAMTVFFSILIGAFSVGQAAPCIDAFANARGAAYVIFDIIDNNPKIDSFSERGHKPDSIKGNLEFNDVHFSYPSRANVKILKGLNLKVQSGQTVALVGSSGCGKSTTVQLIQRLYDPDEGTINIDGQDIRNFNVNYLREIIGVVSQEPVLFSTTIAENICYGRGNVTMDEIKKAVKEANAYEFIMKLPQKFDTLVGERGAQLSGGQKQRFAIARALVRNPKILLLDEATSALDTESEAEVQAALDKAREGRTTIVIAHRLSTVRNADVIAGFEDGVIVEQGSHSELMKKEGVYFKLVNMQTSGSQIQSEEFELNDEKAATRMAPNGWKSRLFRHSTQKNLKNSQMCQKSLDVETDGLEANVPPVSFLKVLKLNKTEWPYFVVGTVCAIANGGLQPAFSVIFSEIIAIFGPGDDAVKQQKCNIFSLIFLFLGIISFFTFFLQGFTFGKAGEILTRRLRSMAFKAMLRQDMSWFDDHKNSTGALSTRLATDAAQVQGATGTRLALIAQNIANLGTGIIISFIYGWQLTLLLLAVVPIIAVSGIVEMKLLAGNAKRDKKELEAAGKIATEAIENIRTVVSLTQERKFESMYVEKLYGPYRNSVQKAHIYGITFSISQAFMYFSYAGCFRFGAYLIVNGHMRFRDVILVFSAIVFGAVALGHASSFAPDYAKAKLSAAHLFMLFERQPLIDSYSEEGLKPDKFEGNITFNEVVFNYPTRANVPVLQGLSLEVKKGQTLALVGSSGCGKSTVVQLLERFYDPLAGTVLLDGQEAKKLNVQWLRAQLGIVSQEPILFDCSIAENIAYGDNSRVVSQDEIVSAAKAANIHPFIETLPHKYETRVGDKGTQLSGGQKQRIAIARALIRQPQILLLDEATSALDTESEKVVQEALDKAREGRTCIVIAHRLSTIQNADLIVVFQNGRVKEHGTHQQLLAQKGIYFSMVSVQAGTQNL
Western blots and indirect immunofluorescence were performed as previously described (2, 12). […] Signals were detected with ECL prime western blotting detection reagent (GE Healthcare, Velizy-Villacoublay, France) and quantified in the linear range of detection using ImageJ 1.50i software (U.S. National Institutes of Health, Bethesda, Md.).
As to `CC[C@@H](Nc1nc(NCc2ccccc2)c2ncn(C3CCCC3)c2n1)C(=O)O` [MRT2-245], the “maturation (mature form) of ABCB4-I541F” value is reported as “significantly increase the expression of a mature form of ABCB4-I541F”.
With `CC[C@@H](Nc1nc(NCc2cccc(C(F)(F)F)c2)c2ncn(C3CCCC3)c2n1)C(=O)O` [MRT2-239], the “maturation (mature form) of ABCB4-I541F” value was “significantly increase the expression of a mature form of ABCB4-I541F”.
In the case of `CC[C@@H](Nc1nc(NCc2cccc(C(F)(F)F)c2)c2ncn(C(C)C)c2n1)C(=O)O` [MRT2-249], the “maturation (mature form) of ABCB4-I541F” value was “significantly increase the expression of a mature form of ABCB4-I541F”.
For `CC[C@@H](Nc1nc(NCc2ccc(F)c(F)c2)c2ncn(C3CCCC3)c2n1)C(=O)O` [MRT2-241], the “maturation (mature form) of ABCB4-I541F” value was “significantly increase the expression of a mature form of ABCB4-I541F”.

The target in the next data set is GSK3 (Homo sapiens, UniProt P49841). Briefly: Protein kinase catalytic activity assay, GSK3. Conditions: read-out: IC50 of protein kinases, GSK3. It is filed as biochemical.
Chain of GSK3 (P49841 whole entry): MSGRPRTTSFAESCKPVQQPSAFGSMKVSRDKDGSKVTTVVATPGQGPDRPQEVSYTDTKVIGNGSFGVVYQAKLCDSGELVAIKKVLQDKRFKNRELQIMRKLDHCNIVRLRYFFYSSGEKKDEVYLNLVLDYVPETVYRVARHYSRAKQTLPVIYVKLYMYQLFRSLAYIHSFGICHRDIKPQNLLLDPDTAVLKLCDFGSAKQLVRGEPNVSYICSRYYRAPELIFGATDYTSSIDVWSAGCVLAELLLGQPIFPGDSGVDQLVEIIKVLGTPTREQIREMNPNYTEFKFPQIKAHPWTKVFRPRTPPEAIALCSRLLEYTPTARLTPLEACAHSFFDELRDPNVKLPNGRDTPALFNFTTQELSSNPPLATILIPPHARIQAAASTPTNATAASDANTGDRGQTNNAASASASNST
For the compound `CC[C@@H](Nc1nc(NCc2ccccc2)c2ncn(C3CCCC3)c2n1)C(=O)O` [MRT2-245], the IC50 is above 10 µM.
Regarding `CC[C@@H](Nc1nc(NCc2cccc(C(F)(F)F)c2)c2ncn(C3CCCC3)c2n1)C(=O)O` [MRT2-239], the IC50 was above 10 µM.
Same read-out and setting: in the case of `CC[C@@H](Nc1nc(NCc2cccc(C(F)(F)F)c2)c2ncn(C(C)C)c2n1)C(=O)O` [MRT2-249] it was above 10 µM; in that of `CC[C@@H](Nc1nc(NCc2ccc(F)c(F)c2)c2ncn(C3CCCC3)c2n1)C(=O)O` [MRT2-241], above 10 µM; in that of `CC[C@@H](Nc1nc(NCc2ccccc2)c2ncn(C(C)C)c2n1)C(=O)O` [M3, reference compound], above 10 µM.
In the case of `CC(C)n1cnc2c(NCc3ccccc3)nc(N[C@@H](CO)C(=O)O)nc21` [MRT2-164], the IC50 was above 10 µM.
